ChEMBL document CHEMBL1152194, “Substituent control of DNA binding modes in a series of chalcogenoxanthylium photosensitizers as determined by isothermal titration calorimetry and topoisomerase I DNA unwinding assay” (Bioorg Med Chem, 2008)

Key:
[1] = Selectivity for Kb of [poly(dAdT)]2 DNA to Kb of [poly(dCdG)]2 DNA
physchem = details: octanol/water
[2] = target: T1, DNA topoisomerase 1 (Homo sapiens) (UniProt P11387); assay: Inhibition of human DNA topoisomerase 1-induced unwinding activity using Escherichia coli pUC19 DNA assessed as bound compound per nucleotide pair at 24 uM
T1 sequence (whole entry): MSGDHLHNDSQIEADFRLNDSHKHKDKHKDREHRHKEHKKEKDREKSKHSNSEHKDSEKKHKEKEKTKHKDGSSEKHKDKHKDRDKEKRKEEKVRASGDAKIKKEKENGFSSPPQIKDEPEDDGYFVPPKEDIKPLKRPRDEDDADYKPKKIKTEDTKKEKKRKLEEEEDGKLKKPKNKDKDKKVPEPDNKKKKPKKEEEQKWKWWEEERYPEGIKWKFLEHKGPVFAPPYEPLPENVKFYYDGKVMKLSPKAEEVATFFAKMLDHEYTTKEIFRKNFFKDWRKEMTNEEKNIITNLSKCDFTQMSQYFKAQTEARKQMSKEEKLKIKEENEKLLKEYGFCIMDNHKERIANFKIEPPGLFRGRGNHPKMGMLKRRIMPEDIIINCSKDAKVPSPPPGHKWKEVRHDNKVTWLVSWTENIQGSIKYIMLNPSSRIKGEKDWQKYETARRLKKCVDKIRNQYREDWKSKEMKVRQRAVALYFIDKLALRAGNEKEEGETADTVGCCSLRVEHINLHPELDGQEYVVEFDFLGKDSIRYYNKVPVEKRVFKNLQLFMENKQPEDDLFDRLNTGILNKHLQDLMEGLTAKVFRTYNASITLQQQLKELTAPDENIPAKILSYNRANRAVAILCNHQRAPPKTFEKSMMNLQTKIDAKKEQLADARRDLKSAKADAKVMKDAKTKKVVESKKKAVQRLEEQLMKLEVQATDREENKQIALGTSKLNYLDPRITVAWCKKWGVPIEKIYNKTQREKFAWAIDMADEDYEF

DNA = assay: Binding affinity to ultrapure calf thymus DNA in MESOO buffer at pH 6.25 at 30 degC by isothermal titration calorimetry assay; assay type: nucleic-acid assay, Bos taurus

CN(C)c1ccc2c(-c3ccccc3)c3ccc(=[N+](C)C)cc-3[se]c2c1
Ratio pKb [1]: 3 | logP (physchem): 0.09

CCN(CC)C(=O)c1sccc1-c1c2ccc(=[N+](C)C)cc-2sc2cc(N(C)C)ccc12
Activity [2]: 0.9

CN(C)c1ccc2c(-c3cccs3)c3ccc(=[N+](C)C)cc-3[te]c2c1.F[P-](F)(F)(F)(F)F
Kd (DNA): 2.1 ×10⁶ /M

CN(C)c1ccc2c(-c3cccs3)c3ccc(=[N+](C)C)cc-3[se]c2c1
logP (physchem): -0.31
